Usually Kd stands for a measure of binding affinity in units of concentration. A lower Kd goes with higher affinity.

Data set [1] concerns RL diffuse large B-cell lymphoma (DLBCL) xenograft. As to the kind of experiment: Anti-tumor activity in RL DLBCL xenograft model. Format: in vivo. Conditions: alone or with CHOP regimen; for Tumor Growth Inhibition (TGI) on Day 25: vs control huIgG. On the procedure: The anti-tumor activity of HCD122 was tested in RL DLBCL xenograft models in combination with CHOP in CB17/SCID mice. 10×10^6 RL cells were subcutaneously implanted with equal volume of Matrigel™ in the animals' midline thoracic vertebral region in a 200 μl volume. The antibody administration was initiated when the mean tumor volume was 150-200 mm^3 in size (noted as day 1 in FIG. 1). […] All monoclonal antibodies were administered on a once-a-week schedule, and the length of treatment was 4 weeks. The CHOP regimen was administered at these doses and schedule: prednisone, 0.2 mg/kg p.o. days 1-5; cytoxan, 40 mg/kg, i.v., day 1; doxorubicin 3.3 mg/kg, i.v., day 1; vincristine, 0.5 mg/kg, i.v., day 1. Group size was n=12. For tumor volume measurements, length then width were measured with a digital caliper. The measurements were recorded twice a week once the tumors became visible. Tumor volumes and doubling times were calculated based on the formula, Volume=L×W^2/2. The animals' weights were recorded and evaluated as a per group average.

Data set [2] concerns the target T1, human CD40 (Homo sapiens, UniProt P25942). As to the kind of experiment: Biacore binding affinity assay. An excerpt:
As used herein “anti-CD40 antibody” encompasses any antibody that specifically recognizes the CD40 antigen. […] Biacore analysis is known in the art and details are provided in the “BIAapplications handbook”.
(§1) The antibody is able to kill CD40-expressing target cells by antibody dependent cellular cytotoxicity (ADCC). The binding affinity of HCD122 for human CD40 is 5×10^−10 M, as determined by the Biacore™ assay.
Target sequence in this assay (P25942 21-277): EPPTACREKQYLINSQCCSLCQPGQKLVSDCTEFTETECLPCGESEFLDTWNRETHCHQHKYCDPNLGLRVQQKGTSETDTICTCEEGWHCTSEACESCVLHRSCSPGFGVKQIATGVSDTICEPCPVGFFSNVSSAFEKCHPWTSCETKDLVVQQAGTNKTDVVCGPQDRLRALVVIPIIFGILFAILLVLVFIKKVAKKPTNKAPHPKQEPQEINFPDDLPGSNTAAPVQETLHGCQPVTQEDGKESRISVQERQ
(In general: Surface plasmon resonance follows binding to a sensor surface in real time, without labels.)

Data set [3] deals with SU-DHL-4 cells. Nature of the data set: CD40L-induced resistance to CHOP cytotoxicity (CellTiter-Glo). The data set is classed as cell-based, human. The settings on record: antibody 10 μg/ml; CD40L 1 μg/ml; 3 days; percentage of viable cells. How it is done: Experiments were performed to elucidate the mechanism by which the H-CHOP combination provides unexpectedly potent anti-tumour efficacy in vivo. SU-DHL-4 cells were cultured in the presence of (i) negative control huIgG1 antibody, (ii) HCD122, (iii) huIgG1 and CD40L or (iv) HCD122 and CD40L. SU-DHL-4 cells were seeded at 30,000 cells/well. The antibodies were all used at 10 μg/ml. Recombinant human soluble CD40L was used at 1 μg/ml with ligand enhancer at 2 μg/ml. All cells were treated with cytoxan at 1 mg/ml, prednisone at 15 μg/ml, doxrubicin at 2.5 ng/ml and vincristin at 1 pg/ml. Cells were cultured for 3 days and the percentage of viable cells determined using CellTiter-Glo.
(ATP-based viability assays read luminescence as a measure of living cells.)

A further data set concerns RL cells. As to the kind of experiment: CD40L-induced NF-kB activation, p65 phosphorylation Western blot, RL cells. Format: cell-based, human. How it is done: (§2) RL and SU-DHL-4 cells were stimulated with CD40L for 0, 10, 30, and 90 minutes and Western blots were performed (FIG. 3). […] The phosphorylation persisted in these cell lines for at least 90 minutes. […] Down-regulating NF-kB activation in a cell may sensitize the cell to CHOP cytotoxicity (Chuang et al. (2002) Biochemical Pharmacology 63:1709-1716; Cheng et al. (2000) Oncogene 19:4936-4940).
(In general: In western blotting, separated proteins are transferred to a membrane and probed.)

Data set [4] relates to SU-DHL-4 cells. Nature of the data set: CD40L-induced NF-kB activation, p65 phosphorylation Western blot, SU-DHL-4 cells. The data set is classed as cell-based, human. How it is done: as §2
A further data set relates to RL cell line. Nature of the data set: CD40L-induced expression of cell-surface adhesion molecules, RL cells. Format: cell-based, human. How it is done:
(§3) To further elucidate the mechanism by which the H-CHOP combination results in unexpectedly potent anti-tumour efficacy in vivo, further experiments were performed. The ability of B-cells cells to aggregate and interact with their microenvironment may affect the efficacy of therapeutics. The effects of HCD122 on the expression of adhesion molecules in the RL and SU-DHL-4 cell lines was therefore examined.

In another data set the test system is SU-DHL-4 cell line. As to the kind of experiment: CD40L-induced expression of cell-surface adhesion molecules, SU-DHL-4 cells. Format: cell-based, human. How it is done:
as §3

For data set [5], the system named is SU-DHL-4 cells. Nature of the data set: CD40L-induced aggregation of SU-DHL-4 cells by microscopy. Format: cell-based, human.
Data set [6] has as its target soluble CD40 (Homo sapiens, UniProt P25942). Nature of the data set: ELISA-type binding assays.
In another data set the target is cell-surface CD40 (Homo sapiens, UniProt P25942). Nature of the data set: Flow cytometric assays of CD40-ligand binding.
For data set [7], the system named is B cells from normal human subjects. Nature of the data set: In vitro proliferation of B cells from normal human subjects. The data set is classed as cell-based. On the procedure:
B cells (4×10^4 per well) are cultured in 200 μl IMDM supplemented with 10% fetal calf serum in flat bottom 96-well microtiter plates. B cells are stimulated by addition of immobilized anti-(IgM) antibodies (Immunobeads; 5 μg/ml; BioRad, Richmond, Calif.). Where desired, 100 U/ml recombinant IL-2 is added. Varying concentrations of test monoclonal antibodies (mAbs) are added at the onset of the microcultures and proliferation is assessed at day 3 by measurement of the incorporation of (3H)-thymidine after 18 hour pulsing.
as §1

Data set [8] deals with CD40-expressing target cells. As to the kind of experiment: Antibody dependent cellular cytotoxicity (ADCC). The data set is classed as cell-based.
Description: as §1

The target in data set [9] is T1, human CD40. Nature of the data set: Biacore.
Data set [10] concerns the target soluble CD40 (UniProt P25942 21-193, limits assumed). Nature of the data set: ELISA-type assays.
The mark [11] stands for this setting: CD40L in the presence of HCD122.

Where “and” joins values, the source holds several entries; their conditions need not be identical. Identical values can stand only once.

Chain of cell-surface CD40 (P25942 21-277): as above
Chain of soluble CD40 (Homo sapiens, UniProt P25942) (P25942 21-193 limits assumed): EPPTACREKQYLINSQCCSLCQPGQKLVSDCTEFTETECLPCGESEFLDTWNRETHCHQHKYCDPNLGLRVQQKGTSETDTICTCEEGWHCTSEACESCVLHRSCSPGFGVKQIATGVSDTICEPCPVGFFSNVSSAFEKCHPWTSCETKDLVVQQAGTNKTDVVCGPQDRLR
Chain of soluble CD40 (UniProt P25942 21-193, limits assumed) (P25942 21-193 limits assumed): as above

Regarding “HCD122: human IgG1 anti-CD40 monoclonal antibody, produced by hybridoma deposited with ATCC as PTA-5543”, the “Tumor Growth Inhibition (TGI) on Day 25” value in [1] (antibody 0.1 mg/kg i.p. once a week for 4 weeks) was 28.65%; in data set [1] (antibody 1 mg/kg i.p. once a week for 4 weeks) it was 71% and 71.15%. In addition, the “Tumor-growth delay (time to reach tumor size of 500 mm^3)” value in [1] (antibody 0.1 mg/kg i.p. once a week) was 1.5 days; in data set [1] (antibody 1 mg/kg i.p. once a week) it was 6 days. The Kd with human CD40 [2] stood at 0.5 nM. The “CD40L-induced resistance to CHOP cytotoxicity” value in the data set on SU-DHL-4 cells [3] is “resistance can be overcome”. Also, the “NF-kB activation induced by CD40L” value in the data set on RL cells and in the data set with SU-DHL-4 cells [4] was “completely blocked” each time. Also, the “Phosphorylation of p65 on CD40L stimulation” value with RL cells (setting [11]) and in the data set with SU-DHL-4 cells [4] (setting [11]) was “greatly inhibited” in each case. Moreover, the “CD40L-induced expression of CD54, CD86 and CD95” value in the data set on RL cell line and in the data set on SU-DHL-4 cell line was “inhibit” each time. In addition, the “CD40L-induced aggregation of SU-DHL-4 cells” value in the data set with SU-DHL-4 cells [5] is “inhibited”. For the same molecule, the “Binding to soluble CD40” value with soluble CD40 [6] is on record as “binds soluble CD40”. Besides, in the data set with cell-surface CD40, the “Binding of CD40-ligand to cell-surface CD40” value was “prevents the binding”. Further, in the data set with cell-surface CD40, the “Displacement of pre-bound CD40-ligand” value is “displaces the pre-bound CD40-ligand”. In addition, the “Effects on proliferation of B cells from normal human subjects” value in data set [7] is listed as “acts as antagonist anti-CD40 antibody”. Moreover, in data set [7], the “Induction of proliferation of human lymphocytes from normal subjects” value is recorded as “does not induce strong proliferation”. In addition, in [8], the “Killing of CD40-expressing target cells by ADCC” value is “able to kill”.

B1: monoclonal antibody HCD122 (antibody, human IgG1, kappa, V domains shown)
VH: QVQLVESGGGVVQPGRSLRLSCAASGFTFSSYGMHWVRQAPGKGLEWVAVISYEESNRYHADSVKGRFTISRDNSKITLYLQMNSLRTEDTAVYYCARDGGIAAPGPDYWGQGTLVTVSS
VL: DIVMTQSPLSLTVTPGEPASISCRSSQSLLYSNGYNYLDWYLQKPGQSPQVLISLGSNRASGVPDRFSGSGSGTDFTLKISRVEAEDVGVYYCMQARQTPFTFGPGTKVDIRR
notes: Fully human IgG1 kappa antibody from XenoMouse; hybridoma ATCC PTA-5543; also called CHIR-12.12; anti-CD40 antibody
In the data set with human CD40 [9], B1 displayed a Kd of 0.5 nM. Moreover, in the data set with soluble CD40 [10], the binding result is on record as “binds”.

These data come from patent US20110002934A1, “USES OF ANTI-CD40 ANTIBODIES” (Novartis AG, priority 2007, published 2011).
